# Measured values from PubChem BioAssay AID624129 (Sanford-Burnham Center for Chemical Genomics, 2012).
# Active and inactive are the calls of the source. The rule behind the calls is not given here.
# Legend:
# Experiment in all cases: CXCR6 receptor antagonists, dose response, cell-based, beta-arrestin, DiscoveRx, APJ panel, uHTS hits (AID 624129)
# [1] = molecular target: Beta-galactosidase (Escherichia coli) (UniProt Q8VNN2); details: CXCR6 beta-arrestin (DiscoveRx) antagonist cell assay, b-galactosidase
# Beta-galactosidase (Escherichia coli), sequence (Q8VNN2 whole entry, looked up): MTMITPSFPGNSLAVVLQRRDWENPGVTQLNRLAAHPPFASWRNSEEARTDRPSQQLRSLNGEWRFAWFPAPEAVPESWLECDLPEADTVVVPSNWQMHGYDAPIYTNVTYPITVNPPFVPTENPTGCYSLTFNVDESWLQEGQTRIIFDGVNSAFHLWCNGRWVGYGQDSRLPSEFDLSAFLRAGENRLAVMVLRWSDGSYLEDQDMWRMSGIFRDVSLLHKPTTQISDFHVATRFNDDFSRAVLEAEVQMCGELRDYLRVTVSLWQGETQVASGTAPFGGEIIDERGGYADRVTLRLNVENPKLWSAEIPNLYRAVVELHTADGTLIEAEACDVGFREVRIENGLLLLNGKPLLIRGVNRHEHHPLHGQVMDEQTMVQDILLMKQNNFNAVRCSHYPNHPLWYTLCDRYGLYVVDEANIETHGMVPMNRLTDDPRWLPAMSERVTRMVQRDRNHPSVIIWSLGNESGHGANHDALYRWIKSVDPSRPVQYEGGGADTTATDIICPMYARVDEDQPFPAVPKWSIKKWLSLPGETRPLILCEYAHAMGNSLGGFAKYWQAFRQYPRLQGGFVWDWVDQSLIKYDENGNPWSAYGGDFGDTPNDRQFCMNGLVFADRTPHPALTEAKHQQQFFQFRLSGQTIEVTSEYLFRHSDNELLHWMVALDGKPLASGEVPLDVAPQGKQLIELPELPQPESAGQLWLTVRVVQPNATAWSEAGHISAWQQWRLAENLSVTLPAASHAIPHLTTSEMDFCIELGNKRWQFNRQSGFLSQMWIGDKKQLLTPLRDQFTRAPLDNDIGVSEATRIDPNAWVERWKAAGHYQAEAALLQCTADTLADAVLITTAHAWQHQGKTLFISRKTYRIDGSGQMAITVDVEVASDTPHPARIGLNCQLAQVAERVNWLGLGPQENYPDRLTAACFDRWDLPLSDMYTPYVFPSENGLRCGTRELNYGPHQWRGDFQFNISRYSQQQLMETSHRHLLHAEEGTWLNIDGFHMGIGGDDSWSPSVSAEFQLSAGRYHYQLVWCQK
# [2] = molecular target: Apelin receptor (Homo sapiens) (UniProt P35414); details: CXCR6 beta-arrestin (DiscoveRx) antagonist cell assay, APJ
# [3] = molecular target: C-C chemokine receptor type 6 (Homo sapiens) (UniProt P51684); details: CXCR6 beta-arrestin (DiscoveRx) antagonist cell assay
# [4] = molecular target: C-X-C chemokine receptor type 6 (Homo sapiens) (UniProt O00574); details: CXCR6 beta-arrestin (DiscoveRx) antagonist cell assay
# C-X-C chemokine receptor type 6 (Homo sapiens), sequence (O00574 whole entry, looked up): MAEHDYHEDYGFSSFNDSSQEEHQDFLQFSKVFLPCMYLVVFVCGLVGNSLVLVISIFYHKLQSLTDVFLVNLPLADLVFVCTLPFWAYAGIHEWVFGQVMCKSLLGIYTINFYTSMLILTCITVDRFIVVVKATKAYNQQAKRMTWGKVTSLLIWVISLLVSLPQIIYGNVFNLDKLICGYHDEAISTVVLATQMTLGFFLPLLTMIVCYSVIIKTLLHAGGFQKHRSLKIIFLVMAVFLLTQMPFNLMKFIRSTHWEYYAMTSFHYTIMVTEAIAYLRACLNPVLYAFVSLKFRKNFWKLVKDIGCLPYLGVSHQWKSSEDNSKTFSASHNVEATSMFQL
# [5] = dose range 1, mean IC50 across replicates
# [6] = CCR6, dose range 1, mean IC50 across replicates
# [7] = CXCR6, dose range 1, mean IC50 across replicates
# [8] = CXCR6, run 1, dose range 2, at 80 µM (top of the series)
# [9] = CXCR6, run 2, dose range 1, at 79 µM (top of the series)
SMILES,IC50 ([1]; dose range 1),"IC50 [1, 5] [µM]",IC50 ([2]; dose range 1) [µM],"IC50 [2, 5] [µM]","IC50 ([2]; run 2, dose range 1) [µM]","IC50 ([2]; run 3, dose range 1) [µM]","IC50 ([3]; CCR6, dose range 1) [µM]","IC50 [3, 6] [µM]","IC50 ([3]; CCR6, run 2, dose range 1) [µM]","IC50 [4, 7] [µM]","IC50 ([4]; CXCR6, run 1, dose range 2) [µM]","IC50 ([4]; CXCR6, run 2, dose range 1) [µM]","IC50 ([4]; CXCR6, run 2, dose range 2) [µM]","IC50 ([4]; CXCR6, dose range 1)","inhibition [4, 8] [%]",activity value [4],"outcome ([4]; CXCR6, dose range 1)","inhibition [4, 9] [%]"
Oc1cccc2ccc(/C=C/c3cccs3)nc12,> 80 µM (inactive),> 80,5.07,4.98,> 80,4.89,3.95,5.65,7.36,4.43,2.77,6.87,3.64,,,,,
CC(=O)OC1C2(CC3N4C(=O)C5(CO)SSC4(CC31O)C(=O)N5C)OC(C)C(C)(C)C2=O (centres undefined),> 80 µM (inactive),> 80,1.1,1.22,0.918,1.64,1.34,1.35,1.36,0.724,0.497,0.936,0.54,0.925 µM,,,,
Cc1ccc(C(=O)Sc2cccccc2=O)cc1,> 80 µM (inactive),> 80,1.05,2.38,4.56,1.52,1.18,1.55,1.92,1.44,,1.79,,1.08 µM,42.3,,,
CS(=O)(=O)c1sc(C#N)c2c1C(=O)CC(c1ccccc1)C2 (centres undefined),> 80 µM (inactive),> 80,68.7,68.7,> 80,> 80,27.4,37.9,48.5,45.5,,32.1,,inactive,73.2,,,
CCC1CCCCN1S(=O)(=O)c1ccc(NC(=O)c2nc(S(C)(=O)=O)ncc2Cl)cc1 (centres undefined),> 80 µM (inactive),> 80,7.03,6.68,7.18,5.85,5.24,5.53,5.82,8.97,10.4,7.17,10.9,7.42 µM,,,,
O=C(CN1CCN(S(=O)(=O)c2ccc(Br)cc2)CC1)Nc1ccc2c(c1)OCO2,> 80 µM (inactive),> 80,21.8,24.8,27.8,> 80,20.7,20.6,20.6,20.7,,19.2,,inactive,100,,,
COC(=O)C1=C(c2ccc(-c3ccccc3)c(F)c2)C[C@@H]2CC[C@H]1N2C(=O)N1CCC(C)CC1,> 80 µM (inactive),> 80,8.49,10.9,13.8,10.3,4.9,8.25,11.6,11.2,,10.8,,inactive,88,,,
COc1ccc(NC(=O)/C(Cl)=C(/Cl)S(=O)Cc2ccc(Cl)cc2)cn1 (centres undefined),> 80 µM (inactive),> 80,,> 80,> 80,> 80,,> 80,> 80,> 80,,> 80,,> 80 µM (inactive),-36.2,,,
C=C1C(=O)c2sccc2C(c2ccc(OC)c(OC)c2)C1COC(C)=O (centres undefined),> 80 µM (inactive),> 80,7.28,6.69,6.03,6.75,4.58,5.3,6.02,6.19,5.73,6.78,5.7,6.54 µM,,,,
CC(=O)Nc1ccc(NC(=O)c2nc(S(=O)(=O)Cc3cccc(C)c3)ncc2Cl)cc1,> 80 µM (inactive),> 80,7.19,8.89,10.8,8.71,6.61,5.6,4.59,4.95,,4.95,,,23.1,,,
Nc1cc(Cl)c2nonc2c1[N+](=O)[O-],> 80 µM (inactive),> 80,10.8,20.6,13.5,37.6,5.46,7.31,9.16,8.28,7.05,7.17,7.35,11.5 µM,,,,
CS(=O)(=O)c1ncc(Cl)c(C(=O)Nc2ccc3ccccc3c2)n1,> 80 µM (inactive),> 80,61.2,60.7,60.1,> 80,,47.5,47.5,> 80,,> 80,,> 80 µM (inactive),47.9,,,
O=c1oc2ccccc2c(Cl)c1CN1CCCCC1,25.6 µM,25.6,13.2,17.9,21.6,18.9,5.59,6.07,6.55,7.76,,7.68,,7.83 µM,125,,,
C/C(=N\NC(=O)Cn1c(-c2ccccn2)nc2ccccc21)c1ccccc1,34 µM,34,23.9,21.3,16.1,23.9,13.7,16.2,18.7,18.4,9.71,29.4,8.43,inactive,,,,
COc1ccccc1C(=O)NNC(=S)NC(=O)c1cccs1,> 80 µM (inactive),> 80,9.86,31,13.8,69.4,12.2,12.1,11.9,15,9.07,22.8,10.6,inactive,,,,
O=C1C(=C(c2ccccc2)N2CCOCC2)Cc2ccccc21,> 80 µM (inactive),> 80,15.3,13.2,11.8,12.5,8.91,8.89,8.87,9.51,9.93,10.3,9.08,8.74 µM,,,,
C=CS(=O)(=O)c1ccc(Oc2ccc(S(=O)(=O)C=C)cc2)cc1,> 80 µM (inactive),> 80,13.1,12.2,9.91,13.7,7.57,7.23,6.88,10.8,8.79,12.2,11.9,10.2 µM,,,,
CC(C)(C)C(=O)NC(=S)NNC(=O)c1sc2ccccc2c1Cl,> 80 µM (inactive),> 80,24.4,18.1,15.2,14.7,,34,34,> 80,,> 80,,> 80 µM (inactive),63.6,,,
On1ccccc1=S,,,13.2,17.6,17.5,22.2,11.5,27,42.4,17.8,,17.3,,inactive,51.2,80 µM (inactive),,
Cc1ccc(P(=O)(c2ccc(C)cc2)[C@@H](NC(c2ccccc2)c2ccccc2)c2ccccc2)cc1,,,,,,,,,,19.6,17,,22.1,,,,inactive,82.4
Cn1c(=O)[nH]c(=O)c2c1nc(Sc1nc3ccccc3s1)n2Cc1ccccc1,,,,,,,,,,21.9,18.3,,25.6,,,,inactive,77.5
O=C1C=CC(=O)N1CCNc1ncc(C(F)(F)F)cc1Cl,,,,,,,,,,15.5,15.7,,15.2,,,,inactive,110
CC1=C(C)CC2C(C1)C(=O)c1ccc(Br)cc1S2(=O)=O (centres undefined),,,,,,,,,,30.5,37.3,,23.7,,,,inactive,50.8
O=C(NCc1ccc2c(c1)OCO2)c1nc(S(=O)(=O)Cc2ccccc2F)ncc1Cl,,,,,,,,,,16.3,15.6,,17,,,,inactive,111
COc1cccc(C(=O)NC(=S)N2CCN(c3ccc(C(F)(F)F)cc3[N+](=O)[O-])CC2)c1,,,,,,,,,,13.5,13.1,,14,,,,inactive,74.3
